In test [1] the test system is NCI-H460 (large cell lung carcinoma) cells. The test can be described thus: antiproliferation assay (72 h, CELLTITER 96), NCI-H460. It counts as cell-based, human. To be noted: Homo sapiens, read-out: NCI-H460 IC50. In a few lines:
(§1)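 Human M14 melanoma and NCI-H460 lung carcinoma cells in RPMI-1640/10% FBS, seeded at 5×10^2–5×10^4 cells/well and adhered overnight, then exposed to seven compound concentrations for 72 h at 37 °C. Viable cells read by CellTiter 96 AQueous (MTS); IC50 = concentration giving 50% of maximal growth inhibition.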

In test [2] the test system is M14 (amelanotic melanoma) cells. The experiment in a line: antiproliferation assay (72 h, CELLTITER 96), M14. The class given is cell-based, human. To be noted: Homo sapiens. In short, it runs like this:
as §1

Results on 27 compounds are retold here after patent US9562031B1, “Phenethyldihydrobenzodioxolones and methods of use” (Sequoia Sciences, Inc., priority 2015, dated 2017).

In general, IC50 refers to the concentration that inhibits the measured activity by half.

Like-named read-outs stand apart in the source and are kept apart here.

With `C=CC[C@H]1C[C@]2([C@H](C)Cc3ccc(OC)cc3C)OCOC2=CC1=O` [Compound 51, (6S,7aR)-6-allyl-7a-((R)-1-(4-methoxy-2-methylphenyl)propan-2-yl)-7,7a-dihydrobenzo[d][1,3]dioxol-5(6H)-one], the IC50 came to 0.78 µM in test [1] (NCI-H460, Table 6) and 0.28 µM in test [2] (Table 6).
Take `C=CC[C@H]1C[C@]2([C@H](C)Cc3cc(C(=O)OC)c(OC)cc3F)OCOC2=CC1=O` [Compound 9, methyl 5-((R)-2-((3aR,5S)-5-allyl-6-oxo-3a,4,5,6-tetrahydrobenzo[d][1,3]dioxol-3a-yl)propyl)-4-fluoro-2-methoxybenzoate]: the IC50 in test [1] (NCI-H460, Table 3) came to 0.26 µM; in test [2] (Table 3) it was 0.21 µM.
As to `C=CC[C@H]1C[C@]2([C@@H](C)Cc3ccc(OC)c4occc34)OCOC2=CC1=O` [Compound 85, (6S,7aR)-6-allyl-7a-((S)-1-(7-methoxybenzofuran-4-yl)propan-2-yl)-7,7a-dihydrobenzo[d][1,3]dioxol-5(6H)-one], the IC50 in test [1] (NCI-H460, Table 8) came to 0.73 µM; in test [2] (Table 8), 0.63 µM.
Turning to `COc1cc(F)c(C[C@H](C)[C@]23C[C@H](CCSC)C(=O)C=C2OCO3)cc1O` [Compound 76, (6R,7aR)-7a-((S)-1-(2-fluoro-5-hydroxy-4-methoxyphenyl)propan-2-yl)-6-(2-(methylthio)ethyl)-7,7a-dihydrobenzo[d][1,3]dioxol-5(6H)-one], the IC50 in test [1] (NCI-H460, Table 7) was 0.45 µM; in test [2] (Table 7), 0.3 µM.
Regarding `COc1ccc(C[C@H](C)[C@]23C[C@H](CC=C(C)C)C(=O)C=C2OCO3)cc1OC` [Compound 90], the IC50 in test [1] (NCI-H460, Table 7) came out at 8 µM; in test [2] (Table 7) it was 7 µM.
On to `C=CC[C@H]1C[C@]2([C@H](C)Cc3ccc(OC)cc3Cl)OCOC2=CC1=O` [Compound 54, (6S,7aR)-6-allyl-7a-((R)-1-(2-chloro-4-methoxyphenyl)propan-2-yl)-7,7a-dihydrobenzo[d][1,3]dioxol-5(6H)-one], for which the IC50 in test [1] (NCI-H460, Table 6) was 0.32 µM; in test [2] (Table 6), 0.045 µM.
For `CC[C@H]1C[C@]2([C@H](C)Cc3cc(F)c(OC)cc3F)OCOC2=CC1=O` [Compound 58], the IC50 in test [1] (NCI-H460, Table 7) worked out at 0.44 µM; in test [2] (Table 7), 0.29 µM.
For `C=CC[C@H]1C[C@]2([C@H](C)Cc3ccc(OC)c(F)c3F)OCOC2=CC1=O` [Compound 22, (6S,7aR)-6-allyl-7a-((R)-1-(2,3-difluoro-4-methoxyphenyl)propan-2-yl)-7,7a-dihydrobenzo[d][1,3]dioxol-5(6H)-one], the IC50 is 2.4 µM in test [1] (NCI-H460, Table 3) and 0.9 µM in test [2] (Table 3).
With `C#CC[C@H]1C[C@]2([C@@H](C)Cc3ccc(OC)cc3F)OCOC2=CC1=O` [Compound 62, (6S,7aR)-7a-((S)-1-(2-fluoro-4-methoxyphenyl)propan-2-yl)-6-(prop-2-yn-1-yl)-7,7a-dihydrobenzo[d][1,3]dioxol-5(6H)-one], the IC50 in test [1] (NCI-H460, Table 7) amounted to 0.073 µM; in test [2] (Table 7), 0.2 µM.
For the compound `C=CC[C@H]1C[C@]2([C@@H](C)Cc3cc(OC)c(OC)cc3F)OCOC2=CC1=O` [Compound 15, (6S,7aR)-6-allyl-7a-((S)-1-(2-fluoro-4,5-dimethoxyphenyl)propan-2-yl)-7,7a-dihydrobenzo[d][1,3]dioxol-5(6H)-one], the IC50 in test [1] (NCI-H460, Table 3) is 0.12 µM; in test [2] (Table 3) it was 0.014 µM.
The like results for `C=CC[C@H]1C[C@]2(C(C)Cc3cc(C(N)=O)c(OC)cc3F)OCOC2=CC1=O` (stereo partly drawn) [Compound 11, 5-(2-((3aR,5S)-5-allyl-6-oxo-3a,4,5,6-tetrahydrobenzo[d][1,3]dioxol-3a-yl)propyl)-4-fluoro-2-methoxybenzamide] were, in that order, 0.33 µM and 0.004 µM.
The like results for `C=CC[C@H]1C[C@]2([C@@H](C)Cc3cc(N)c(OC)cc3F)OCOC2=CC1=O` [Compound 17, (6S,7aR)-6-allyl-7a-((S)-1-(5-amino-2-fluoro-4-methoxyphenyl)propan-2-yl)-7,7a-dihydrobenzo[d][1,3]dioxol-5(6H)-one] were, in that order, 0.16 µM and 0.029 µM.
Consider `COc1ccc(C[C@H](C)[C@]23C[C@H](C/C=C/c4ccccc4)C(=O)C=C2OCO3)cc1OC` (relative stereo) [Compound 71, (6S,7aR)-6-cinnamyl-7a-((S)-1-(3,4-dimethoxyphenyl)propan-2-yl)-7,7a-dihydrobenzo[d][1,3]dioxol-5(6H)-one], for which the IC50 was 14 µM in test [1] (NCI-H460, Table 7) and 6.4 µM in test [2] (Table 7).
Take `C=C(F)C[C@H]1C[C@]2([C@@H](C)Cc3cc(F)c(OC)cc3F)OCOC2=CC1=O` [Compound 64, (6R,7aR)-7a-((S)-1-(2,5-difluoro-4-methoxyphenyl)propan-2-yl)-6-(2-fluoroallyl)-7,7a-dihydrobenzo[d][1,3]dioxol-5(6H)-one]: the IC50 in test [1] (NCI-H460, Table 7) turned out to be 0.22 µM; in test [2] (Table 7) it was 0.14 µM.
For the compound `C=CC[C@H]1C[C@]2([C@H](C)Cc3cc(F)c(N(C)C)cc3F)OCOC2=CC1=O` [Compound 47, (6S,7aR)-6-allyl-7a-((R)-1-(4-(dimethylamino)-2,5-difluorophenyl)propan-2-yl)-7,7a-dihydrobenzo[d][1,3]dioxol-5(6H)-one], the IC50 in test [1] (NCI-H460, Table 5) came to 0.33 µM; in test [2] (Table 5) it was 0.075 µM.
On to `C=CC[C@H]1C[C@]2([C@@H](C)Cc3cc(C(=O)OC)c(OC)cc3F)OCOC2=CC1=O` [Compound 10, methyl 5-((S)-2-((3aR,5S)-5-allyl-6-oxo-3a,4,5,6-tetrahydrobenzo[d][1,3]dioxol-3a-yl)propyl)-4-fluoro-2-methoxybenzoate], for which the IC50 was 2.2 µM in test [1] (NCI-H460, Table 3) and over 20 µM in test [2] (Table 3).
As for `COc1cc(F)c(C[C@H](C)[C@]23C[C@H](Cc4ccncc4)C(=O)C=C2OCO3)cc1O` [Compound 114, (6S,7aR)-7a-((S)-1-(2-fluoro-5-hydroxy-4-methoxyphenyl)propan-2-yl)-6-(pyridin-4-ylmethyl)-7,7a-dihydrobenzo[d][1,3]dioxol-5(6H)-one], the IC50 in test [1] (NCI-H460, Table 7) was 2 µM; in test [2] (Table 7), 3.5 µM.
As to `C=CC[C@H]1C[C@]2([C@@H](C)Cc3cc(F)c(OC)cc3F)O[C@H](C)OC2=CC1=O` [Compound 82, (2R,6S,7aR)-6-allyl-7a-((S)-1-(2,5-difluoro-4-methoxyphenyl)propan-2-yl)-2-methyl-7,7a-dihydrobenzo[d][1,3]dioxol-5(6H)-one], the IC50 was 5.2 µM in test [1] (NCI-H460, Table 8) and over 20 µM in test [2] (Table 8).
With `C=CC[C@H]1C[C@]2([C@@H](C)Cc3ccc(OC(C)=O)cc3)OCOC2=CC1=O` [Compound 100, 4-((S)-2-((3aR,5S)-5-allyl-6-oxo-3a,4,5,6-tetrahydrobenzo[d]dioxol-3a-yl)propyl)phenyl acetate], the IC50 in test [1] (NCI-H460, Table 5) was over 20 µM; in test [2] (Table 5), over 20 µM.
Turning to `C=CC[C@H]1C[C@]2([C@@H](C)Cc3cc(-c4ccccc4)c(OC)cc3F)OCOC2=CC1=O` [Compound 91, (6S,7aR)-6-allyl-7a-((S)-1-(4-fluoro-6-methoxy-[1,1′-biphenyl]-3-yl)propan-2-yl)-7,7a-dihydrobenzo[d][1,3]dioxol-5(6H)-one], the IC50 is over 20 µM in test [1] (NCI-H460, Table 3) and over 20 µM in test [2] (Table 3).
For `C=CC[C@H]1C[C@]2([C@@H](CC)Cc3ccc(OC)c(OC)c3)OCOC2=CC1=O` [Compound 87, (6S,7aR)-6-allyl-7a-(1-(3,4-dimethoxyphenyl)butan-2-yl)-7,7a-dihydrobenzo[d][1,3]dioxol-5(6H)-one], the IC50 in test [1] (NCI-H460, Table 8) came to 11 µM; in test [2] (Table 8), 2.6 µM.
For the compound `C=CC[C@H]1C[C@]2([C@@H](C)Cc3cc(F)c(SC)cc3F)OCOC2=CC1=O` [Compound 116, (6S,7aR)-6-allyl-7a-((S)-1-(2,5-difluoro-4-(methylthio)phenyl)propan-2-yl)-7,7a-dihydrobenzo[d][1,3]dioxol-5(6H)-one], the IC50 in test [1] (NCI-H460, Table 5) worked out at 0.19 µM; in test [2] (Table 5), 0.12 µM.
Consider `COc1cc(F)c(C[C@H](C)[C@]23C[C@H](Cc4ccco4)C(=O)C=C2OCO3)cc1O` [Compound 113, (6S,7aR)-7a-((S)-1-(2-fluoro-5-hydroxy-4-methoxyphenyl)propan-2-yl)-6-(furan-2-ylmethyl)-7,7a-dihydrobenzo[d][1,3]dioxol-5(6H)-one], for which the IC50 worked out at 2.5 µM in test [1] (NCI-H460, Table 7) and 1.6 µM in test [2] (Table 7).
Regarding `C=CC[C@H]1C[C@]2([C@H](C)Cc3cc(F)c(OC)cc3F)O[C@H](C)OC2=CC1=O` [Compound 89, (2R,6S,7aR)-6-allyl-7a-((R)-1-(2,5-difluoro-4-methoxyphenyl)propan-2-yl)-2-methyl-7,7a-dihydrobenzo[d][1,3]dioxol-5(6H)-one], the IC50 in test [1] (NCI-H460, Table 8) is 6.9 µM; in test [2] (Table 8), over 20 µM.
For the compound `C=CC[C@H]1C[C@]2([C@@H](C)Cc3cc(F)c(OC)cc3F)OCOC2=CC1=O` [Compound 7, (6S,7aR)-6-allyl-7a-((S)-1-(2,5-difluoro-4-methoxyphenyl)propan-2-yl)-7,7a-dihydrobenzo[d][1,3]dioxol-5(6H)-one], the IC50 in test [1] (NCI-H460, Table 3) amounted to 0.059 µM; in test [2] (Table 3), 0.023 µM.
Take `C=CC[C@H]1C[C@]2([C@@H](C)Cc3cc(F)c(N(C)C)cc3F)OCOC2=CC1=O` [Compound 48, (6S,7aR)-6-allyl-7a-((S)-1-(4-(dimethylamino)-2,5-difluorophenyl)propan-2-yl)-7,7a-dihydrobenzo[d][1,3]dioxol-5(6H)-one]: the IC50 worked out at 0.33 µM in test [1] (NCI-H460, Table 5) and 0.07 µM in test [2] (Table 5).
For the compound `C=C[C@@H](C)[C@H]1C[C@]2([C@@H](C)Cc3ccc(OC)cc3F)OCOC2=CC1=O` [Compound 112, (6R,7aR)-6-((R)-but-3-en-2-yl)-7a-((S)-1-(2-fluoro-4-methoxyphenyl)propan-2-yl)-7,7a-dihydrobenzo[d][1,3]dioxol-5(6H)-one], the IC50 in test [1] (NCI-H460, Table 7) was 0.068 µM; in test [2] (Table 7), 0.044 µM.
